Where “and” joins values, the source holds several entries; their conditions need not be identical. Equal entries are not always repeated. Where two headings read alike, the source gives them in different places.
System: NCI-H2228 cell
Assay: CCK8 proliferation assay with combination index analysis
Type: cell-based, human
Conditions: CAI alone
Description: CCK8 method was used to evaluate the effect of the drugs towards proliferation of lung cancer cell line (NCI-H2228 cell). The cellular viability with different concentration of drug was assayed and the 50% inhibitory concentration was calculated.
Emerge NCI-H2228 cells (purchased from American Type Culture Collection (ATCC, Manassas, VA, USA)) from liquid nitrogen and thaw in a 37°C water bath. After thawing, culture cells in 1640 medium.
When cell density reached 90% confluence in culture medium, cells were digested with 0.25% trypsin and resuspended. After cell growth stabilized, cells in the logarithmic growth phase were harvested and counted using a cell counter and it was ensured that viability exceeded 85% for all cell lines.
Adjust cell concentration by diluting with culture medium. Add 100 µL of cell suspension to a 96-well plate to achieve a density of 3000 cells/well. Add 100 µL of PBS buffer to the wells around the cell-seeded wells.
Incubate the 96-well plate at 37°C, 5% CO2, and 95% humidity overnight.
Remove the cell culture plate from the incubator, aspirate the culture medium, and add the prepared drug-containing medium. Incubate at 37°C, 5% CO2, and 95% humidity for 72 hours.
Add 10 µL of CCK-8 solution to each well of the 96-well plate. Incubate the plate in the cell culture incubator for 1.5 hours. Measure the absorbance at 450 nm using a microplate reader.
Analyze data using GraphPad Prism 5.0 software. Fit the data using nonlinear S-curve regression to generate a dose-response curve and calculate the IC50 value. [formula]
The analysis of the combination index of the compound was performed using the median effect principle. The formula for the combination index of two compounds is: CI = (D)1/(Dx)1 + (D)2/(Dx)2 [formula]
Where: • (D)1---- The concentration of Compound 1 when compound 1 was used with another compound and the effect X was generated; • (D)2---- The concentration of Compound 2 when compound 2 was used with another compound and the effect X was generated; • (Dx)1---- The concentration of Compound 1 when compound 1 was used alone and the effect X was generated; • (Dx)2---- The concentration of Compound 2 when compound 2 was used alone and the effect X was generated.
The CI value enables quantitative assessment of the nature and strength of interactions between different compounds (Table 2). Interaction strength is measured using the weighted average CI (CIwt), calculated by the formula: CIwt = (CI50+2CI75+3CI90+4CI95)/10 [formula]
Where: • CI50 ---- CI value at EC50 (concentration achieving 50% effect) • CI75, CI90, and CI95 follow the same principle, representing the CI values at EC75, EC90, and EC95, respectively.
Evaluation of the combination effect: CI value is used to evaluate the combination effect, and the judgment method is shown in Table 7. Table 7 Judgment criteria of the results

With `NC(=O)c1nnn(Cc2cc(Cl)c(C(=O)c3ccc(Cl)cc3)c(Cl)c2)c1N` [CAI, 5-Amino-1-[3,5-dichloro-4-(4-chlorobenzoyl chloride)benzyl]-1H-1,2,3-triazole-4-benzamide] the IC50 (single plates 1-3, 72 hours, read-out: IC50 (CAI)) was 22.9 µM and 23 µM, the IC50 (Homo sapiens, NCI-H2228, 72 h, average of 3 plates, read-out: IC50 (CAI)) was 22.8 µM and the IC50 (Homo sapiens, NCI-H2228, 72 h, single plates 1-3, read-out: IC50 (CAI)) was 22.4 µM.

— patent EP4717275A1, “ANTI-LUNG CANCER COMBINED DRUG AND USE THEREOF” (Gunagdong Yinzhu Pharmaceutical Technology Co., Ltd, priority 2023, dated 2024)
